Data: patent US11285159B2 (AbbVie Inc., priority 2019, dated 2022)
Read-outs that look alike come from different tables or passages of the source.

Tests used:
[1] = 400 mg once daily ketoconazole; 10 subjects with cancer; cited from earlier work
[2] = system: human tumor cell lines derived from small cell lung carcinomas and lymphoid malignancies; conditions: read-out: EC50, mechanism-based cytotoxicity; cited from earlier work
[3] = system: resistance to JAK-2 inhibitors associated with BCL-XL elevation; conditions: cited from earlier work
[4] = molecular target: T1, BCL-W (Homo sapiens, UniProt Q92843); conditions: cited from earlier work
T1 sequence (Q92843 1-193): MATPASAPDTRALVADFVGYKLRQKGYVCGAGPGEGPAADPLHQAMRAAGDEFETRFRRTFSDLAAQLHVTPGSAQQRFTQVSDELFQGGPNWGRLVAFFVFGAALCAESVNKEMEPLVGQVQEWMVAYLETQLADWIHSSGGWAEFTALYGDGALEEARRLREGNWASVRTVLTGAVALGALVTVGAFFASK

[5] = system: myeloproliferative neoplasm patient samples cultured ex vivo and myeloproliferative neoplasm-derived cell lines bearing the activating JAK-2 V617F mutation; conditions: cited from earlier work
[6] = system: spleen volume; experiment: exposure-spleen volume response model, parameter estimation (NONMEM); design: species or system human; conditions: spleen volume inhibition; R/R MF, cohort 1a data
Excerpt: Spleen volume data up to only week 40 was used in the model to improve model predictability. […] Inter-individual variability with full correlation matrix was incorporated on estimated baseline spleen volume, kout, EC50NAV and EC50RUX using exponential function and the residual variability was characterized using combined proportional and additive error model.
At baseline, the rates of the spleen volume model are set to be the same kin=kout due to a theoretical steady state assumption without treatment interference. This leads to an initial condition for the SV compartment of 1, where SV predictions are derived by multiplying this compartment with baseline. Disease progression was included in the model with the factor “Eprog” on “kin”.

[7] = system: platelets; experiment: exposure-platelet response model, parameter estimation (NONMEM); design: species or system human
Excerpt: The model was based on established models described in the literature (Kaefer, A., Yang, J., Noertersheuser, P. et al. Cancer Chemother Pharmacol (2014) 74: 593. doi:10.1007/s00280-014-2530-2530; and Friberg, Lena E., et al. “Model of chemotherapy-induced myelosuppression with parameter consistency across drugs. “Journal of clinical oncology 20.24 (2002): 4713-4721, both references hereby incorporated by reference in their entireties).
PK model for ruxolitinib was described by a two-compartment model with a lag-time in absorption (Equations 2a through 2c).
The time course of platelet response was modeled using a semi-physiological model that comprised a progenitor cell compartment, three transition compartments representing the maturation chain in the bone marrow and a peripheral blood compartment (see FIG. 2). A feedback system was used in this model to describe the increase in the maturation rate in bone marrow when the platelet level in the blood compartment is below baseline and decrease in the maturation rate when the platelet level in blood is above baseline. […] Equations 3 to 9 represent the PD model.
The model is initialized at 0 for the PK related compartments, at POOL for the PROLIF compartment, and at 1 for the maturation and circulation compartments. The platelet prediction is obtained by (Baseline Platelets)×PLT1×PLT2. The rates of the Platelet1 model are set to be the same ktrans=kin=kout due to a steady state assumption without treatment interference.
A factor was included on the baseline platelet count such that baseline(t=−84 days)=factor×baseline(t=0 days)
This yields a relative pseudo baseline at initiation of ruxolitinib (referred to as ‘ruxolitinib factor’ on baseline platelet count). […] The first 56 days of data were fitted to avoid influence of long-term disease effects on the model.
No inter-individual variability was estimated on ruxolitinib EC50 since limited data precluded its appropriate estimation.

[8] = system: tumors in mice bearing the Eμ-TEL-JAK-2 transgene or PDX mice bearing JAK-2-mutated B-ALL cells; conditions: cited from earlier work
[9] = co-administration of navitoclax with rifampin; format: in vivo, human; conditions: 600 mg once daily rifampin for 4 days; 11 subjects with cancer
Excerpt: Increased dosage should be made with frequent monitoring of safety and efficacy.

[10] = system: 22 cell lines consisting of multiple leukemia and lymphoma types spanning both B-cell and T-cell malignancies; conditions: cited from earlier work
[11] = system: platelets; conditions: effect on platelets, cited from earlier work; for Ruxolitinib EC50: fixed to published value
[12] = system: subjects with primary or secondary myelofibrosis; experiment: Phase 2 study of navitoclax in combination with ruxolitinib (Example 1)
Excerpt: Treatment continued until the end of clinical benefit, unacceptable toxicity, or discontinuation. The primary efficacy endpoint was percentage reduction in splenic volume from baseline. Secondary endpoints included effect on total symptom score (TSS), overall response rate, rate of anemia response, improvement in bone marrow fibrosis, and safety profile.
For this study, inclusion criteria included the following: • 1. Subject must be ≥18 years of age. • 2. Subject has documented diagnosis of Intermediate or High-Risk Primary Myelofibrosis, Post-Polycythemia Vera Myelofibrosis (PPV-MF), or Post-Essential Thrombocythemia Myelofibrosis (PET-MF) as defined by the World Health Organization classification. • 3. Subject must be ineligible or unwilling to undergo stem cell transplantation at time of study entry. • 4. Subject must have an Eastern Cooperative Oncology Group (ECOG) Performance Score of 0, 1, or 2. • 5. […] Prior treatment with JAK-2 inhibitor for at least 12 weeks • b. Prior treatment with JAK-2 inhibitor for at least 28 days complicated by any of the following: • i. […] Splenic irradiation within 6 months prior to screening, or prior splenectomy. • 2. Leukemic transformation (>10% blasts in peripheral blood or bone marrow biopsy). • 3. Subject is currently on medications that interfere with coagulation (including warfarin) or platelet function with the exception of low dose aspirin (up to 100 mg) and low-molecular-weight heparin (LMWH). • 4. Prior therapy with a BH3 mimetic compound. • 5.
Subjects needed to have received ruxolitinib therapy for at least 12 weeks prior to study enrollment without interruption, have splenomegaly as defined by a spleen palpable ≥5 cm below costal margin and be currently on a stable dose of ≥10 mg BID of ruxolitinib.

[13] = system: myeloproliferative neoplasm cells; endogenous erythroid colonies representing malignant PV clones; conditions: cited from earlier work
[14] = system: spleen volume; conditions: spleen volume inhibition, fixed to a published value, cited from earlier work
[15] = system: patients with intermediate or high-risk primary or secondary myelofibrosis; conditions: ruxolitinib monotherapy; cited from earlier work
[16] = 22 subjects with ruxolitinib dose reduction

## CC1(C)CCC(c2ccc(Cl)cc2)=C(CN2CCN(c3ccc(C(=O)NS(=O)(=O)c4ccc(N[C@H](CCN5CCOCC5)CSc5ccccc5)c(S(=O)(=O)C(F)(F)F)c4)cc3)CC2)C1 [Navitoclax, 4-(4-{[2-(4-chlorophenyl)-5,5-dimethyl-1-cyclohexen-1-yl]methyl}-1-piperazinyl)-N-[(4-{[(2R)-4-(4-morpholinyl)-1-(phenylsulfanyl)-2-butanyl]amino}-3-[(trifluoromethyl)sulfonyl]phenyl)sulfonyl]benzamide]
[1]
  impact on navitoclax Cmax: no impact
  increase of navitoclax AUC∞: 1.55 fold
[2]
  EC50: ≤ 1000 nM
[3]
  overcoming resistance to JAK-2 inhibitors: ability to overcome that resistance
[4]
  Ki: ≤ 1 nM
[5]
  cell killing activity: cell killing activity
[6]
  Navitoclax EC50, estimate: 4.37 µg/mL
[7]; effect on platelets, fitted to data of 34 subjects
  Navitoclax EC50, estimate and 95% confidence interval: 3.61 (1.97; 6.58) mg/L
[8]; combination of navitoclax and a JAK-2 inhibitor vs either agent alone
  survival of mice with JAK-2-mutated tumors: superior to either agent alone
[8]; navitoclax added to a JAK-2 inhibitor
  growth of tumors: significantly slowing the growth of tumors
[9]
  decrease of navitoclax AUC∞: 41%
  decrease of navitoclax Cmax: 16%
[10]
  cell lines with potent single agent activity: 10 of 22
[11]; fixed, based on Kaefer et al.
  Navitoclax Emax: 5
[12]; human, in vivo
  Dose Delay/Interruption: More Than One Interruption, %: (39.1) %
  Dose Delay/Interruption: No Interruption, %: (34.8) %
  Dose Delay/Interruption: Only One Interruption, %: (26.1) %
  Dose Reduction: More Than One Dose Reduction, %: (39.1) %
  Dose Reduction: No Dose Reduction, %: (17.4) %
  Dose Reduction: Only One Dose Reduction, %: (43.5) %
  Reasons for Dose Delay/Interruption: Adverse Events, %: (52.2) %
  Reasons for Dose Delay/Interruption: Anemia, %: (4.3) %
  Reasons for Dose Delay/Interruption: Diarrhea, %: (4.3) %
  Reasons for Dose Delay/Interruption: Other adverse events, %: (17.4) %
  Reasons for Dose Delay/Interruption: Thrombocytopenia, %: (34.8) %
  Reasons for Dose Reduction: Adverse Events, %: (73.9) %
  Reasons for Dose Reduction: Anemia, %: (17.4) %
  Reasons for Dose Reduction: Diarrhea, %: (8.7) %
  Reasons for Dose Reduction: Other adverse events, %: (30.4) %
  Reasons for Dose Reduction: Thrombocytopenia, %: (47.8) %
[12]; in vivo
  Reasons for Dose Delay/Interruption: Other (non-adverse event), %: (30.4) %
  Reasons for Dose Reduction: Other (non-adverse event), %: (17.4) %

## CN(C)CC[C@H](CSc1ccccc1)Nc1ccc(S(=O)(=O)NC(=O)c2ccc(N3CCN(Cc4ccccc4-c4ccc(Cl)cc4)CC3)cc2)cc1[N+](=O)[O-] [ABT-737]
[5]
  cell killing activity: cell killing activity
[13]; 500 nM ABT-737
  endogenous erythroid colonies growing in the absence of erythropoietin: significantly inhibited
[13]; 100-300 nM ABT-737 combined with a JAK-2 inhibitor
  endogenous erythroid colonies growing in the absence of erythropoietin: further suppressed
[13]
  proliferation of myeloproliferative neoplasm cells: ability to block the proliferation

## N#CC[C@H](C1CCCC1)n1cc(-c2ncnc3[nH]ccc23)cn1 [Ruxolitinib, (R)-3-(4-(7H-pyrrolo[2,3-d]pyrimidin-4-yl)-1H-pyrazol-1-yl)-3-cyclopentylpropanenitrile]
[14]
  Ruxolitinib Emax: 0.765 fixed
[14]; listed as ruxolitinib
  Ruxolitinib Emax: 0.765
[6]
  Ruxolitinib EC50, estimate: 0.0144 µg/mL
[7]
  ruxolitinib factor for relative pseudo baseline platelet count: 1.53 fold
[7]; at average ruxolitinib concentration
  drop in platelet count: ~36%
[7]; pseudo baseline at initiation of ruxolitinib relative to baseline at initiation of navitoclax
  BaselineFactor (ruxolitinib factor on baseline platelet count), estimate and 95% confidence interval: 1.53 (1.41; 1.65)
[11]
  Ruxolitinib EC50: 0.0825 µg/mL
[11]; listed as ruxolitinib
  Ruxolitinib EC50: 0.08248 µg/mL
[11]; fixed, assumed (JAKAFI approval package)
  Ruxolitinib Emax: 1
[12]; [16]
  ruxolitinib dose reductions due to anemia: 18.2%
  ruxolitinib dose reductions due to thrombocytopenia: 86.4%
[12]; 25 subjects enrolled on ruxolitinib >10 mg BID
  subjects whose ruxolitinib dose was reduced to 10 mg BID: 88%
[15]
  patients achieving spleen volume reduction of ≥35% (SVR35): approximately 40%
  time after start of monotherapy within which SVR35 is typically observed: ≤ 12 weeks
